Data from ChEMBL document CHEMBL1201862, “PubChem BioAssay data set” (2004).
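All cell lines were grown in 96-well plates and treated with compound for 48 hours. GI50 is the concentration that inhibits growth by half.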 The source made the active and inactive calls. Cut-off read from the data, not from the text of the source: active = GI50 up to about 1.1 µM and inactive = higher.

Experiments:
Assay in all cases: growth of human tumour cells (NCI), 48 h
786-0 = test system: 786-0
A498 = test system: A498
A549 = test system: A549
ACHN = test system: ACHN
BT-549 = test system: BT-549
CAKI-1 = test system: CAKI-1
CCRF-CEM = test system: CCRF-CEM
COLO 205 = test system: COLO 205
DU-145 = test system: DU-145
EKVX = test system: EKVX
HCT-116 = test system: HCT-116
HCT-15 = test system: HCT-15
HL-60 = test system: HL-60
HOP-92 = test system: HOP-92
HT-29 = test system: HT-29
Hs-578T = test system: Hs-578T
IGROV-1 = test system: IGROV-1
K562 = test system: K562
KM12 = test system: KM12
LOX IMVI = test system: LOX IMVI
M14 = test system: M14
MCF7 = test system: MCF7
MDA-MB-231 = test system: MDA-MB-231
MDA-MB-435 = test system: MDA-MB-435
MDA-N = test system: MDA-N
MOLT-4 = test system: MOLT-4
NCI-H226 = test system: NCI-H226
NCI-H23 = test system: NCI-H23
NCI-H460 = test system: NCI-H460
NCI-H522 = test system: NCI-H522
NCI/ADR-RES = test system: NCI/ADR-RES
OVCAR-3 = test system: OVCAR-3
OVCAR-4 = test system: OVCAR-4
OVCAR-5 = test system: OVCAR-5
OVCAR-8 = test system: OVCAR-8
PC-3 = test system: PC-3
RPMI-8226 = test system: RPMI-8226
RXF 393 = test system: RXF 393
SF-268 = test system: SF-268
SF-295 = test system: SF-295
SF-539 = test system: SF-539
SK-MEL-2 = test system: SK-MEL-2
SK-MEL-5 = test system: SK-MEL-5
SK-OV-3 = test system: SK-OV-3
SN12C = test system: SN12C
SNB-19 = test system: SNB-19
SNB-75 = test system: SNB-75
SR = test system: SR
SW-620 = test system: SW-620
T47D = test system: T47D
TK-10 = test system: TK-10
U-251 = test system: U-251
UACC-257 = test system: UACC-257
UACC-62 = test system: UACC-62
UO-31 = test system: UO-31
HOP-62 = test system: HOP-62
Malme-3M = test system: Malme-3M
SK-MEL-28 = test system: SK-MEL-28

## CSc1ncc2c(n1)-c1ccccc1OC2N1CCOCC1 (stereo not given)
786-0
  GI50: 75.7 µM (inactive)
A498
  GI50: 21.3 µM (inactive)
A549
  GI50: 97.7 µM (inactive)
ACHN
  GI50: 80.9 µM (inactive)
BT-549
  GI50: 49.5 µM (inactive)
CAKI-1
  GI50: 50.8 µM (inactive)
CCRF-CEM
  GI50: 47.1 µM (inactive)
COLO 205
  GI50: > 100 µM (inactive)
DU-145
  GI50: > 100 µM (inactive)
EKVX
  GI50: 76 µM (inactive)
HCT-116
  GI50: 69.7 µM (inactive)
HCT-15
  GI50: 53.7 µM
HL-60
  GI50: 27.3 µM (inactive)
HOP-92
  GI50: 41.9 µM (inactive)
HT-29
  GI50: 90.4 µM (inactive)
Hs-578T
  GI50: 61.2 µM (inactive)
IGROV-1
  GI50: 39.4 µM (inactive)
K562
  GI50: 56.1 µM (inactive)
KM12
  GI50: 53.3 µM (inactive)
LOX IMVI
  GI50: 65.5 µM (inactive)
M14
  GI50: > 100 µM (inactive)
MCF7
  GI50: 55.8 µM (inactive)
MDA-MB-231
  GI50: 83.9 µM (inactive)
MDA-MB-435
  GI50: > 100 µM (inactive)
MDA-N
  GI50: > 100 µM (inactive)
MOLT-4
  GI50: 43.3 µM (inactive)
NCI-H226
  GI50: 85.7 µM (inactive)
NCI-H23
  GI50: > 100 µM (inactive)
NCI-H460
  GI50: 41.5 µM (inactive)
NCI-H522
  GI50: 34.4 µM (inactive)
NCI/ADR-RES
  GI50: 57.1 µM (inactive)
OVCAR-3
  GI50: 56.2 µM (inactive)
OVCAR-4
  GI50: 21.7 µM (inactive)
OVCAR-5
  GI50: > 100 µM (inactive)
OVCAR-8
  GI50: > 100 µM (inactive)
PC-3
  GI50: 31.6 µM (inactive)
RPMI-8226
  GI50: 49.9 µM (inactive)
RXF 393
  GI50: 53.8 µM (inactive)
SF-268
  GI50: 87.9 µM (inactive)
SF-295
  GI50: 49.7 µM (inactive)
SF-539
  GI50: > 100 µM (inactive)
SK-MEL-2
  GI50: > 100 µM (inactive)
SK-MEL-5
  GI50: 40.4 µM (inactive)
SK-OV-3
  GI50: > 100 µM (inactive)
SN12C
  GI50: 50 µM (inactive)
SNB-19
  GI50: 68.2 µM (inactive)
SNB-75
  GI50: 44.5 µM (inactive)
SR
  GI50: 64.9 µM (inactive)
SW-620
  GI50: > 100 µM (inactive)
T47D
  GI50: 24.1 µM (inactive)
TK-10
  GI50: 43.3 µM (inactive)
U-251
  GI50: > 100 µM (inactive)
UACC-257
  GI50: 81.8 µM (inactive)
UACC-62
  GI50: 28.1 µM (inactive)
UO-31
  GI50: 42.4 µM (inactive)

## C=CCC1C(=O)Nc2cccc3ncn(c23)C1=O (stereo not given)
786-0
  GI50: > 100 µM (inactive)
A498
  GI50: > 100 µM (inactive)
A549
  GI50: > 100 µM (inactive)
ACHN
  GI50: > 100 µM (inactive)
BT-549
  GI50: > 100 µM (inactive)
CAKI-1
  GI50: > 100 µM (inactive)
CCRF-CEM
  GI50: > 100 µM (inactive)
COLO 205
  GI50: > 100 µM (inactive)
DU-145
  GI50: > 100 µM (inactive)
EKVX
  GI50: > 100 µM (inactive)
HCT-116
  GI50: > 100 µM (inactive)
HCT-15
  GI50: > 100 µM
HL-60
  GI50: > 100 µM (inactive)
HOP-62
  GI50: > 100 µM (inactive)
HOP-92
  GI50: > 100 µM (inactive)
HT-29
  GI50: > 100 µM (inactive)
Hs-578T
  GI50: > 100 µM (inactive)
IGROV-1
  GI50: > 100 µM (inactive)
K562
  GI50: > 100 µM (inactive)
KM12
  GI50: 48.9 µM (inactive)
M14
  GI50: > 100 µM (inactive)
MCF7
  GI50: > 100 µM (inactive)
MDA-MB-231
  GI50: > 100 µM (inactive)
MDA-MB-435
  GI50: > 100 µM (inactive)
MDA-N
  GI50: > 100 µM (inactive)
MOLT-4
  GI50: > 100 µM (inactive)
Malme-3M
  GI50: > 100 µM (inactive)
NCI-H226
  GI50: > 100 µM (inactive)
NCI-H23
  GI50: > 100 µM (inactive)
NCI-H460
  GI50: > 100 µM (inactive)
NCI/ADR-RES
  GI50: > 100 µM (inactive)
OVCAR-3
  GI50: > 100 µM (inactive)
OVCAR-4
  GI50: > 100 µM (inactive)
OVCAR-5
  GI50: > 100 µM (inactive)
OVCAR-8
  GI50: > 100 µM (inactive)
PC-3
  GI50: > 100 µM (inactive)
RPMI-8226
  GI50: > 100 µM (inactive)
RXF 393
  GI50: > 100 µM (inactive)
SF-268
  GI50: > 100 µM (inactive)
SF-295
  GI50: > 100 µM (inactive)
SF-539
  GI50: > 100 µM (inactive)
SK-MEL-28
  GI50: > 100 µM (inactive)
SK-MEL-2
  GI50: > 100 µM (inactive)
SK-MEL-5
  GI50: > 100 µM (inactive)
SK-OV-3
  GI50: > 100 µM (inactive)
SN12C
  GI50: > 100 µM (inactive)
SNB-19
  GI50: > 100 µM (inactive)
SNB-75
  GI50: > 100 µM (inactive)
SR
  GI50: > 100 µM (inactive)
SW-620
  GI50: > 100 µM (inactive)
T47D
  GI50: > 100 µM (inactive)
U-251
  GI50: > 100 µM (inactive)
UACC-257
  GI50: > 100 µM (inactive)
UACC-62
  GI50: > 100 µM (inactive)
UO-31
  GI50: > 100 µM (inactive)
